Legend:
Histone deacetylase 1 = Histone deacetylase 1 (Homo sapiens, UniProt Q13547); experiment: Inhibition of recombinant HDAC1 (unknown origin) incubated for 10 mins using Boc-Lys(acetyl)-AMC fluorogenic substrate by homogeneous fluorescence release assay
NCI-H661 = experiment: Antiproliferative activity against human NCI-H661 cells incubated for 72 hrs by MTT assay; type: functional, cell-based; conditions: NCI-H661, 72 h
U-937 = experiment: Antiproliferative activity against human U937 cells incubated for 72 hrs by MTT assay; type: functional, cell-based; conditions: U-937, 72 h
Histone deacetylase 8 = target: T1, Histone deacetylase 8 (Homo sapiens, UniProt Q9BY41); experiment: Inhibition of recombinant HDAC8 (unknown origin) incubated for 10 mins using Boc-Lys(acetyl)-AMC fluorogenic substrate by homogeneous fluorescence release assay
T1 sequence (Q9BY41 whole entry): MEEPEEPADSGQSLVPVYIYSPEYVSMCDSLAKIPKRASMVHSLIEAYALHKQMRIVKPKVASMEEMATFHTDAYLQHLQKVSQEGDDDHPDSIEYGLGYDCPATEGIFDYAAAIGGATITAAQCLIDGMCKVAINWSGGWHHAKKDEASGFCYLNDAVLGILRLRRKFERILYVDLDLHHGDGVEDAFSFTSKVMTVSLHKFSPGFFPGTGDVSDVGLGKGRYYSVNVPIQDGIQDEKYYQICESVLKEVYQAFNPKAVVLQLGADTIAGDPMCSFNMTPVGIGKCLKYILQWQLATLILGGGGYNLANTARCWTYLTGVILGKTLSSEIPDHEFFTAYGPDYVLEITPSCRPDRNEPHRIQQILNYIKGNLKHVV

A549 = experiment: cells; conditions: Homo sapiens, A549, 72 h
Description: Antiproliferative activity against human A549 cells incubated for 72 hrs by MTT assay

Histone deacetylase 2 = Histone deacetylase 2 (Homo sapiens, UniProt Q92769); experiment: Inhibition of recombinant HDAC2 (unknown origin) incubated for 10 mins using Boc-Lys(acetyl)-AMC fluorogenic substrate by homogeneous fluorescence release assay
Histone deacetylase [1] = experiment: Inhibition of histone deacetylase (unknown origin) by cell-free assay; type: protein assay, Homo sapiens
Histone deacetylase [2] = experiment: Inhibition of histone deacetylase (unknown origin) by intracellular cell based assay; set-up: species or system Homo sapiens

Chain of Histone deacetylase 1 (Q13547 whole entry): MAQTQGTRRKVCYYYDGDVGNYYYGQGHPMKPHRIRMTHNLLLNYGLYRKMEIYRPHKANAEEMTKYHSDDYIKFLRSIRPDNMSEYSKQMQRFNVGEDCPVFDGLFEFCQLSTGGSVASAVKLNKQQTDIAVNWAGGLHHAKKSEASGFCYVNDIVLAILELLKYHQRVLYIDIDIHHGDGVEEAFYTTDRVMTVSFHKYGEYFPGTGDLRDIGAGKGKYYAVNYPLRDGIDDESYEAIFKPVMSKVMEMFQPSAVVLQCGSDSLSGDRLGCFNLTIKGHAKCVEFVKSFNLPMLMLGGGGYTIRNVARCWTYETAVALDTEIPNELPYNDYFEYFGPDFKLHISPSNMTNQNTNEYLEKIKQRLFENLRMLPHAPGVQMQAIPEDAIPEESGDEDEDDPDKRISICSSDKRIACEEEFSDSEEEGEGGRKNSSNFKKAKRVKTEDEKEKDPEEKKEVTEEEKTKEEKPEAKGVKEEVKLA
Chain of Histone deacetylase 2 (Q92769 whole entry): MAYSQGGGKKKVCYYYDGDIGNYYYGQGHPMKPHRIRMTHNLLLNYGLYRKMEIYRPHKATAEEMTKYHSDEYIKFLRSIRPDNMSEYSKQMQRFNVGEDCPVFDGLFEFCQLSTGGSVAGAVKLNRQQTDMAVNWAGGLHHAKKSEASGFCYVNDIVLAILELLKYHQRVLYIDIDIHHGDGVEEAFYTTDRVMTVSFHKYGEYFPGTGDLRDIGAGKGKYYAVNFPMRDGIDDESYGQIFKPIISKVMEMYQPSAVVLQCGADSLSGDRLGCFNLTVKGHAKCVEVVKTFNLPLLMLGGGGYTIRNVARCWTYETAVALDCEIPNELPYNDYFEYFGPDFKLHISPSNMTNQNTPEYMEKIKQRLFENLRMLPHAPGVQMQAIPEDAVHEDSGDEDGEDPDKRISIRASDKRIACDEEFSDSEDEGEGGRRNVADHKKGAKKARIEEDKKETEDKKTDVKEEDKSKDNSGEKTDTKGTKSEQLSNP

| IC50 (Histone deacetylase 1) | IC50 (NCI-H661) | IC50 (U-937) | IC50 (Histone deacetylase 8) | IC50 (A549) | IC50 (Histone deacetylase 2) | IC50 (Histone deacetylase [1]) | IC50 (Histone deacetylase [2]) | Compound |
| --- | --- | --- | --- | --- | --- | --- | --- | --- |
| 4.13 µM | 8.31 µM | 6.91 µM | > 10 µM | > 100 µM | > 10 µM | – | – | Nc1ccccc1NC(=O)CCCCCCc1nc(-c2ccccc2Cl)no1 |
| 1.92 µM | 15.3 µM | 2.87 µM | > 10 µM | 14 µM | 7.93 µM | – | – | O=C(CCCCCCc1nc(-c2ccc(C(F)(F)F)cc2)no1)NO |
| > 10 µM | 11.9 µM | 4.67 µM | 2.08 µM | 18.5 µM | 8.56 µM | – | – | O=C(CCCCCCc1nc(-c2ccc(Cl)cc2)no1)C(F)(F)F |
| 9.63 µM | 5.05 µM | 1.17 µM | 1.86 µM | 35.9 µM | 4.53 µM | – | – | COc1ccc(-c2noc(CCCCCCC(=O)C(F)(F)F)n2)cc1 |
| 0.82 µM | 7.29 µM | 2.15 µM | > 10 µM | 20.2 µM | 5.19 µM | – | – | Nc1ccccc1NC(=O)CCCCCCc1nc(-c2cccc([N+](=O)[O-])c2)no1 |
| 2.18 µM | 20.4 µM | 3.65 µM | > 10 µM | 13.5 µM | > 10 µM | – | – | COc1ccc(-c2noc(CCCCCCC(=O)NO)n2)cc1 |
| 0.68 µM | 17.3 µM | 0.98 µM | > 10 µM | 11.9 µM | 5.19 µM | – | – | O=C(CCCCCCc1nc(-c2ccc(Cl)cc2)no1)NO |
| 0.88 µM | 9.53 µM | 3.08 µM | > 10 µM | 31.2 µM | 2.57 µM | – | – | Nc1ccccc1NC(=O)CCCCCCc1nc(-c2ccc(F)cc2)no1 |
| 0.21 µM | 0.96 µM | 0.73 µM | > 10 µM | 23.9 µM | 0.73 µM | – | – | Nc1ccccc1NC(=O)CCCCCCc1nc(-c2ccccc2)no1 |
| > 10 µM | 17.5 µM | 3.68 µM | 3.17 µM | > 100 µM | 8.15 µM | – | – | O=C(CCCCCCc1nc(-c2ccc([N+](=O)[O-])cc2)no1)C(F)(F)F |
| 0.14 µM | 0.41 µM | 0.46 µM | 8.39 µM | 9.17 µM | 0.68 µM | – | – | Cc1ccc(-c2noc(CCCCCCC(=O)Nc3ccccc3N)n2)cc1 |
| 5.17 µM | 7.53 µM | 1.28 µM | 0.95 µM | 11.7 µM | 1.63 µM | – | – | O=C(CCCCCCc1nc(-c2cccs2)no1)C(F)(F)F |
| 3.04 µM | 29.8 µM | 5.28 µM | > 10 µM | > 100 µM | > 10 µM | – | – | Nc1ccccc1NC(=O)CCCCCCc1nc(-c2ccc(C(F)(F)F)cc2)no1 |
| 3.98 µM | 6.43 µM | 0.56 µM | 0.83 µM | 9.58 µM | 0.92 µM | – | – | O=C(CCCCCCc1nc(-c2cccc([N+](=O)[O-])c2)no1)C(F)(F)F |
| 0.12 µM | 9.46 µM | 0.32 µM | 1.92 µM | 4.37 µM | 0.51 µM | – | – | O=C(CCCCCCc1nc(-c2cccs2)no1)NO |
| 1.05 µM | 15.4 µM | 2.07 µM | > 10 µM | > 100 µM | 3.16 µM | – | – | Nc1ccccc1NC(=O)CCCCCCc1nc(-c2cccnc2)no1 |
| 0.38 µM | 17.3 µM | 1.25 µM | 2.05 µM | 7.08 µM | 1.17 µM | – | – | O=C(CCCCCCc1nc(-c2ccccc2)no1)NO |

| IC50 (Histone deacetylase 1) | IC50 (NCI-H661) | IC50 (U-937) | IC50 (Histone deacetylase 8) | IC50 (A549) | IC50 (Histone deacetylase 2) | IC50 (Histone deacetylase [1]) | IC50 (Histone deacetylase [2]) | Compound |
| --- | --- | --- | --- | --- | --- | --- | --- | --- |
| 1.56 µM | 11.2 µM | 4.36 µM | > 10 µM | 13.8 µM | 6.29 µM | – | – | Nc1ccccc1NC(=O)CCCCCCc1nc(-c2ccc(Cl)cc2)no1 |
| 0.91 µM | 7.99 µM | 2.69 µM | > 10 µM | 19.5 µM | 3.85 µM | – | – | COc1ccc(-c2noc(CCCCCCC(=O)Nc3ccccc3N)n2)cc1 |
| 0.76 µM | 6.18 µM | 1.59 µM | > 10 µM | 28.7 µM | 2.87 µM | – | – | Nc1ccccc1NC(=O)CCCCCCc1nc(-c2cccs2)no1 |
| – | – | – | – | – | – | 0.6 µM | 1.8 µM | O=C(CCCCCc1nc2cc3ccccc3cc2[nH]1)C(F)(F)F |
| 0.08 µM | 6.02 µM | 0.35 µM | 1.83 µM | 5.34 µM | 0.39 µM | – | – | O=C(CCCCCCc1nc(-c2cccnc2)no1)NO |
| 7.65 µM | 1.25 µM | 0.92 µM | 0.71 µM | 6.16 µM | 1.58 µM | – | – | O=C(CCCCCCc1nc(-c2ccccc2Cl)no1)C(F)(F)F |
| > 10 µM | 18.7 µM | 3.73 µM | 3.19 µM | > 100 µM | 7.32 µM | – | – | Cc1ccc(-c2noc(CCCCCCC(=O)C(F)(F)F)n2)cc1 |
| 0.49 µM | 15.8 µM | 1.36 µM | 5.39 µM | 5.81 µM | 2.78 µM | – | – | Cc1ccc(-c2noc(CCCCCCC(=O)NO)n2)cc1 |
| 1.15 µM | 19.4 µM | 1.93 µM | 8.76 µM | 5.77 µM | 6.26 µM | – | – | O=C(CCCCCCc1nc(-c2ccc(F)cc2)no1)NO |
| – | – | 0.55 µM | – | – | – | – | – | Nc1ccccc1NC(=O)c1ccc(CNC(=O)OCc2cccnc2)cc1 [ENTINOSTAT] |
| 0.19 µM | 10.3 µM | 0.75 µM | 3.65 µM | 8.87 µM | 1.25 µM | – | – | O=C(CCCCCCc1nc(-c2ccccc2Cl)no1)NO |
| > 10 µM | 12.7 µM | 2.35 µM | 7.65 µM | > 100 µM | > 10 µM | – | – | O=C(CCCCCCc1nc(-c2ccc(F)cc2)no1)C(F)(F)F |
| 8.67 µM | > 100 µM | 10.2 µM | > 10 µM | > 100 µM | > 10 µM | – | – | Nc1ccccc1NC(=O)CCCCCCc1nc(-c2ccc([N+](=O)[O-])cc2)no1 |
| 8.25 µM | 6.39 µM | 1.96 µM | 1.03 µM | 28.8 µM | 2.79 µM | – | – | O=C(CCCCCCc1nc(-c2ccc(C(F)(F)F)cc2)no1)C(F)(F)F |
| 0.07 µM | 3.09 µM | 0.29 µM | 2.56 µM | 5.31 µM | 0.23 µM | – | – | O=C(CCCCCCc1nc(-c2ccc([N+](=O)[O-])cc2)no1)NO |
| 0.35 µM | 16.1 µM | 1.16 µM | 2.38 µM | 10.8 µM | 1.56 µM | – | – | O=C(CCCCCCc1nc(-c2cccc([N+](=O)[O-])c2)no1)NO |
| 5.32 µM | 0.52 µM | 0.41 µM | 0.76 µM | 7.68 µM | 1.05 µM | – | – | O=C(CCCCCCc1nc(-c2ccccc2)no1)C(F)(F)F |

Source: ChEMBL document CHEMBL3585316, “Discovery, bioactivity and docking simulation of Vorinostat analogues containing 1,2,4-oxadiazole moiety as potent histone deacetylase inhibitors and antitumor agents” (Bioorg Med Chem, 2015)
